In patent publication US9676714B2, “Sulfonylindole derivatives and method for preparing the same” (Daewoong Pharmaceutical Co., Ltd., priority 2013, dated 2017):
Where a name gives a salt, the structure may show the parent alone.

molecular target: T1, proton pump (H+/K+-ATPase) (Sus scrofa, UniProt P19156); test: Measurement of inhibitory effects on proton pump (H+/K+-ATPase) activities; format: biochemical; conditions: hog gastric vesicles, K+-specific H+/K+-ATPase activity, Tris-HCl buffer pH 7.4, 37° C. for 40 minutes, malachite green Pi readout
T1 construct: Gastric vesicles were prepared from hog stomach via centrifugal separation; from tissue; host or cells: hog stomach (gastric vesicles, method of Rabon et al. 1988)
Method in brief: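 Hog gastric vesicles in 60 mmol/l Tris-HCl pH 7.4 with 0.5% DMSO were treated with compounds at room temperature; reaction was started with 10 μl of 10 mmol/l ATP stock. Released Pi was read at 570 nm, K+-specific activity taken as the ±K+ difference. IC50 from 4-parameter logistic fit.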

T1 sequence (P19156 whole entry): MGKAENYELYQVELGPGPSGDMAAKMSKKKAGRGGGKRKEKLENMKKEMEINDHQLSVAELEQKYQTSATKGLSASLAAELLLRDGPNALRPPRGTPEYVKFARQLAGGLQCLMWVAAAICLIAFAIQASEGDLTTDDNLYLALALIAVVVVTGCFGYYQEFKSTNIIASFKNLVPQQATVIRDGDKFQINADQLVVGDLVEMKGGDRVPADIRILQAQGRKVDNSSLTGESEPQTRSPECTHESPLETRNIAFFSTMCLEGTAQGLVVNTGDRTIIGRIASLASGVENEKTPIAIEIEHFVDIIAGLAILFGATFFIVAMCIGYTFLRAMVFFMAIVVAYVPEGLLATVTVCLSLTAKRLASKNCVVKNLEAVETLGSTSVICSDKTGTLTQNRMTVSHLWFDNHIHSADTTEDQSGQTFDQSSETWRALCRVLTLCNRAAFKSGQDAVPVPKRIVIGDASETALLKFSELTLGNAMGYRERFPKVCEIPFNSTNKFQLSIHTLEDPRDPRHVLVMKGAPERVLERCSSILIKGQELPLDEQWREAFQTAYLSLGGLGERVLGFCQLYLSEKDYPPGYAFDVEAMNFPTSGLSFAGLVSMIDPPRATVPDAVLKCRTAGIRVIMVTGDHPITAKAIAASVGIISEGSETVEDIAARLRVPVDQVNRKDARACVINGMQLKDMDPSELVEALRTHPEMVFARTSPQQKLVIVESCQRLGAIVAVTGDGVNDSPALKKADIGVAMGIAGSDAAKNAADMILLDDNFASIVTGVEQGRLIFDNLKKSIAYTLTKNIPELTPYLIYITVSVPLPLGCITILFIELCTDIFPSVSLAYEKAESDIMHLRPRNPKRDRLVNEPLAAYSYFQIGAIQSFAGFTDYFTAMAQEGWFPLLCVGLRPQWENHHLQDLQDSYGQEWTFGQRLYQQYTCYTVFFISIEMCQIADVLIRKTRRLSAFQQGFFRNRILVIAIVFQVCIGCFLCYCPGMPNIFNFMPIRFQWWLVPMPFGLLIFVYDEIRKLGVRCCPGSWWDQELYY
T1 sequence (P18434 whole entry partner): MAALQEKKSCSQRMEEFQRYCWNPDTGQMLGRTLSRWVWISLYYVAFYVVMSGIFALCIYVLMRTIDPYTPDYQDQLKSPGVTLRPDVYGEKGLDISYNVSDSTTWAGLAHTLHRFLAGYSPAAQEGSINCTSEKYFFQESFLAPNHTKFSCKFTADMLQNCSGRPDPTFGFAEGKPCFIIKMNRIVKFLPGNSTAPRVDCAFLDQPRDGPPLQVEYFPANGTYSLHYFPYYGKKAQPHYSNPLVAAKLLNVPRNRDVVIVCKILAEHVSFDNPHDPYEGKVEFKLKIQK

Row | Structure (SMILES) | IC50
1 | CNCc1cn(S(=O)(=O)c2cccc(OC(F)(F)F)c2)c2cc(Nc3ccc(OC(F)(F)F)cc3OC)ccc12 [Example 202, N-(2-methoxy-4-(trifluoromethoxy)phenyl)-3-((methylamino)methyl)-1-((3-(trifluoromethoxy)phenyl)sulfonyl)-1H-indol-6-amine hydrochloride] | 580 nM
2 | CNCc1cn(S(=O)(=O)c2cccc(OC(F)(F)F)c2)c2cc(Nc3ccc(C)c(F)c3F)ccc12 [Example 203, N-(2,3-difluoro-4-methylphenyl)-3-((methylamino)methyl)-1-((3-(trifluoromethoxy)phenyl)sulfonyl)-1H-indol-6-amine hydrochloride] | 450 nM
3 | CNCc1cn(S(=O)(=O)c2cccc(OC(F)(F)F)c2)c2cc(Nc3ccc(C)nc3F)ccc12 [Example 204, N-(2-fluoro-6-methylpyridin-3-yl)-3-((methylamino)methyl)-1-((3-(trifluoromethoxy)phenyl)sulfonyl)-1H-indol-6-amine hydrochloride] | 500 nM
4 | CNCc1cn(S(=O)(=O)c2cccc(OC(F)(F)F)c2)c2cc(Nc3ccc(C)nc3Cl)ccc12 [Example 205, N-(2-chloro-6-methylpyridin-3-yl)-3-((methylamino)methyl)-1-((3-(trifluoromethoxy)phenyl)sulfonyl)-1H-indol-6-amine hydrochloride] | 1750 nM
5 | CNCc1cn(S(=O)(=O)c2ccc(OC(F)(F)F)cc2)c2cc(Nc3ccc(C)cc3F)ccc12 [Example 206, N-(2-fluoro-4-methylphenyl)-3-((methylamino)methyl)-1-((4-(trifluoromethoxy)phenyl)sulfonyl)-1H-indol-6-amine hydrochloride] | 2550 nM
6 | CNCc1cn(S(=O)(=O)c2ccc(OC(F)(F)F)cc2)c2cc(Nc3ccc(C)cc3Cl)ccc12 [Example 207, N-(2-chloro-4-methylphenyl)-3-((methylamino)methyl)-1-((4-(trifluoromethoxy)phenyl)sulfonyl)-1H-indol-6-amine hydrochloride] | 550 nM
7 | CNCc1cn(S(=O)(=O)c2ccc(OC(F)(F)F)cc2)c2cc(Nc3ccc(OC(F)(F)F)cc3C)ccc12 [Example 209, N-(2-methyl-4-(trifluoromethoxy)phenyl)-3-((methylamino)methyl)1-((4-(trifluoromethoxy)phenyl)sulfonyl)-1H-indol-6-amine hydrochloride] | 1060 nM
8 | CNCc1cn(S(=O)(=O)c2cncc(F)c2)c2cc(Nc3ccc(OC(F)(F)F)cc3Cl)ccc12 [Example 215, N-(2-chloro-4-(trifluoromethoxy)phenyl)-1-((5-fluoropyridin-3-yl)sulfonyl)-3-((methylamino)methyl)-1H-indol-6-amine hydrochloride] | 820 nM
9 | CNCc1cn(S(=O)(=O)c2ccc(OC)cc2)c2cc(Nc3ccc(C)cc3Cl)ccc12 [Example 219, N-(2-chloro-4-methylphenyl)-1-((4-methoxyphenyl)sulfonyl)-3-((methylamino)methyl)-1H-indol-6-amine hydrochloride] | 270 nM
10 | CNCc1cn(S(=O)(=O)c2ccc(OC(F)F)cc2)c2cc(Nc3ccc(C)cc3Cl)ccc12 [Example 220, N-(2-chloro-4-methylphenyl)-1-((4-(difluoromethoxy)phenyl)sulfonyl)-3-((methylamino)methyl)-1H-indol-6-amine hydrochloride] | 290 nM
11 | CNCc1cn(S(=O)(=O)c2ccc(C(F)(F)F)cc2)c2cc(Nc3ccc(C)cc3Cl)ccc12 [Example 221, N-(2-chloro-4-methylphenyl)-3-((methylamino)methyl)-1-((4-(trifluoromethyl)phenyl)sulfonyl)-1H-indol-6-amine hydrochloride] | 1580 nM
12 | CNCc1cn(S(=O)(=O)c2ccccc2)c2cc(Nc3ccc(C)cc3F)ccc12 [Example 222, N-(2-fluoro-4-methylphenyl)-3-((methylamino)methyl)-1-(phenylsulfonyl)-1H-indol-6-amine hydrochloride] | 1840 nM
13 | CNCc1cn(S(=O)(=O)c2ccccc2C)c2cc(Nc3ccc(C)cc3F)ccc12 [Example 223, N-(2-fluoro-4-methylphenyl)-3-((methylamino)methyl)-1-(o-tolylsulfonyl)-1H-indol-6-amine hydrochloride] | 1290 nM
14 | CNCc1cn(S(=O)(=O)c2ccccc2F)c2cc(Nc3ccc(C)cc3F)ccc12 [Example 224, N-(2-fluoro-4-methylphenyl)-1-((2-fluorophenyl)sulfonyl)-3-((methylamino)methyl)-1H-indol-6-amine hydrochloride] | 3300 nM
15 | CNCc1cn(S(=O)(=O)c2ccccc2Cl)c2cc(Nc3ccc(C)cc3F)ccc12 [Example 225, 1-((2-chlorophenyl)sulfonyl)-N-(2-fluoro-4-methylphenyl)-3-((methylamino)methyl)-1H-indol-6-amine hydrochloride] | 2060 nM
16 | CNCc1cn(S(=O)(=O)c2cccc(C#N)c2)c2cc(Nc3ccc(C)cc3F)ccc12 [Example 227, 3-((6-((2-fluoro-4-methylphenyl)amino)-3-((methylamino)methyl)-1H-indol-1-yl)sulfonyl)benzonitrile hydrochloride] | 6490 nM

Row | Structure (SMILES) | IC50
17 | CNCc1cn(S(=O)(=O)c2cccc(Br)c2)c2cc(Nc3ccc(C)cc3F)ccc12 [Example 228, 1-((3-bromophenyl)sulfonyl)-N-(2-fluoro-4-methylphenyl)-3-((methylamino)methyl)-1H-indol-6-amine hydrochloride] | 900 nM
18 | CNCc1cn(S(=O)(=O)c2ccc(C)cc2)c2cc(Nc3ccc(C)cc3F)ccc12 [Example 229, N-(2-fluoro-4-methylphenyl)-3-((methylamino)methyl)-1-tosyl-1H-indol-6-amine hydrochloride] | 1110 nM
19 | CNCc1cn(S(=O)(=O)c2ccc(Cl)cc2)c2cc(Nc3ccc(C)cc3F)ccc12 [Example 230, 1-((4-chlorophenyl)sulfonyl)-N-(2-fluoro-4-methylphenyl)-3-((methylamino)methyl)-1H-indol-6-amine hydrochloride] | 910 nM
20 | CNCc1cn(S(=O)(=O)c2ccc(C(C)(C)C)cc2)c2cc(Nc3ccc(C)cc3F)ccc12 [Example 231, 1-((4-(tert-butyl)phenyl)sulfonyl)-N-(2-fluoro-4-methylphenyl)-3-((methylamino)methyl)-1H-indol-6-amine hydrochloride] | 2620 nM
21 | CNCc1cn(S(=O)(=O)c2ccc(-c3ccccc3)cc2)c2cc(Nc3ccc(C)cc3F)ccc12 [Example 232, 1-([1,1′-biphenyl]-4-ylsulfonyl)-N-(2-fluoro-4-methylphenyl)-3-((methylamino)methyl)-1H-indol-6-amine hydrochloride] | 2150 nM
22 | CNCc1cn(S(=O)(=O)c2cccc3ccccc23)c2cc(Nc3ccc(C)cc3F)ccc12 [Example 233, N-(2-fluoro-4-methylphenyl)-3-((methylamino)methyl)-1-(naphthalen-1-ylsulfonyl)-1H-indol-6-amine hydrochloride] | 2850 nM
23 | CNCc1cn(S(=O)(=O)c2cccc(Cl)c2Cl)c2cc(Nc3ccc(C)cc3F)ccc12 [Example 234, 1-((2,3-dichlorophenyl)sulfonyl)-N-(2-fluoro-4-methylphenyl)-3-((methylamino)methyl)-1H-indol-6-amine hydrochloride] | 1470 nM
24 | CNCc1cn(S(=O)(=O)c2ccc(Cl)cc2Cl)c2cc(Nc3ccc(C)cc3F)ccc12 [Example 235, 1-((2,4-dichlorophenyl)sulfonyl)-N-(2-fluoro-4-methylphenyl)-3-((methylamino)methyl)-1H-indol-6-amine hydrochloride] | 2890 nM
25 | CNCc1cn(S(=O)(=O)c2cc(C)ccc2C)c2cc(Nc3ccc(C)cc3F)ccc12 [Example 236, 1-((2,5-dimethylphenyl)sulfonyl)-N-(2-fluoro-4-methylphenyl)-3-((methylamino)methyl)-1H-indol-6-amine hydrochloride] | 2040 nM
26 | CNCc1cn(S(=O)(=O)c2ccc(F)c(F)c2)c2cc(Nc3ccc(C)cc3F)ccc12 [Example 237, 1-((3,4-difluorophenyl)sulfonyl)-N-(2-fluoro-4-methylphenyl)-3-((methylamino)methyl)-1H-indol-6-amine hydrochloride] | 990 nM
27 | CNCc1cn(S(=O)(=O)c2ccc(Cl)c(Cl)c2)c2cc(Nc3ccc(C)cc3F)ccc12 [Example 238, 1-((3,4-dichlorophenyl)sulfonyl)-N-(2-fluoro-4-methylphenyl)-3-((methylamino)methyl)-1H-indol-6-amine hydrochloride] | 2560 nM
28 | CNCc1cn(S(=O)(=O)c2cc(C)cc(C)c2)c2cc(Nc3ccc(C)cc3F)ccc12 [Example 239, 1-((3,5-dimethylphenyl)sulfonyl)-N-(2-fluoro-4-methylphenyl)-3-((methylamino)methyl)-1H-indol-6-amine hydrochloride] | 1750 nM
29 | CNCc1cn(S(=O)(=O)c2ccc(Cl)c(Cl)c2Cl)c2cc(Nc3ccc(C)cc3F)ccc12 [Example 240, N-(2-fluoro-4-methylphenyl)-3-((methylamino)methyl)-1-((2,3,4-trichlorophenyl)sulfonyl)-1H-indol-6-amine hydrochloride] | 1670 nM
30 | CNCc1cn(S(=O)(=O)c2cncc(Br)c2)c2cc(Nc3ccc(C)cc3F)ccc12 [Example 241, 1-((5-bromopyridin-3-yl)sulfonyl)-N-(2-fluoro-4-methylphenyl)-3-((methylamino)methyl)-1H-indol-6-amine hydrochloride] | 2190 nM
31 | CNCc1cn(S(=O)(=O)c2ccc(OC)nc2)c2cc(Nc3ccc(C)cc3F)ccc12 [Example 242, N-(2-fluoro-4-methylphenyl)-1-((6-methoxypyridin-3-yl)sulfonyl)-3-((methylamino)methyl)-1H-indol-6-amine hydrochloride] | 3850 nM
32 | CNCc1cn(S(=O)(=O)c2cccnc2)c2cc(-c3ccccc3)ccc12 [Example 243, N-methyl-1-(6-phenyl-1-(pyridin-3-ylsulfonyl)-1H-indol-3-yl)methanamine] | 7140 nM
